“And” between values parts separate entries of the source, which are not always exact repeats. Identical values can stand only once.
Legend:
hCA IX = biological target: T1, hCA IX (Homo sapiens, UniProt Q16790); experiment: stopped-flow CO2 hydrase assay, hCA IX; assay type: biochemical; conditions: for Selectivity index (SI) I/IX: hCA IX over hCA I; for Selectivity index (SI) II/IX: hCA IX over hCA II; for Ki: mean ± SEM of three assays
T1 construct: made in house
Excerpt: (§1) An Applied Photophysics stopped-flow instrument has been used for assaying the CA-catalysed CO2 hydration activity, as reported earlier. […] All hCA isoforms were recombinant proteins, being obtained in-house as reported earlier.

hCA XII = biological target: T2, hCA XII (Homo sapiens, UniProt O43570); experiment: stopped-flow CO2 hydrase assay, hCA XII; assay type: biochemical; conditions: for Selectivity index (SI) I/XII: hCA XII over hCA I; for Selectivity index (SI) II/XII: hCA XII over hCA II; for Ki: mean ± SEM of three assays
T2 construct: made in house
T2 sequence (O43570 25-354): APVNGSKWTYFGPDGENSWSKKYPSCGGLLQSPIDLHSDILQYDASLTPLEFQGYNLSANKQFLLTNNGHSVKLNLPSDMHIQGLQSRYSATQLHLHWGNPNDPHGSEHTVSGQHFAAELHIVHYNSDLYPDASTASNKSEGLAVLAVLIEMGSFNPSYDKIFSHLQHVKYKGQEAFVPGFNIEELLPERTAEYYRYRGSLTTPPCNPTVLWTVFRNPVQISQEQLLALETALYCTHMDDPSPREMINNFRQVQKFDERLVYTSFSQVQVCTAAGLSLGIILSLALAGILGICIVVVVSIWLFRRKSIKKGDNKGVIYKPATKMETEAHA
Excerpt: as §1

Hairpin = experiment: CD melting experiments, hairpin DNA duplex; conditions: 2 molar equiv compound, T1/2 of DNA alone 66.0 °C
Description: To evaluate the possible binding and stabilisation of double-stranded DNA, a 27-nt long hairpin-forming sequence (Hairpin) was employed.
In particular, the following DNA sequences were synthesised and employed for the experiments: d([sequence]) (c-Kit1), d([sequence]) (c-Myc), d([sequence]) (Tel23), and d([sequence]) (Hairpin). Oligonucleotides were dissolved in the proper buffer and their concentration was measured by UV absorption at 90 °C, as previously reported[80]^,[81]. To achieve the correct folding of the sequences, the DNA solutions were heated in a water bath at 90 °C for 5 min, and then allowed to cool slowly to room temperature overnight. Then, DNA samples were stored at 4 °C for 24 h, before data acquisition.
The samples were prepared by dissolving the oligonucleotides in 5 mM KH2PO4/K2HPO4 buffer (pH 7.0) containing 20 mM KCl (or LiCl in the case of c-Myc because of its high thermal stability). DNA concentrations of 20 µM for GQs and 30 µM for Hairpin were used. For each compound, a 10 mM stock solution in 100% DMSO was prepared. […] CD spectra were acquired at 20 and 100 °C, in the 230–320 nm wavelength range, averaged over three scans and subtracted of the buffer baseline. The scanning speed was set to 100 nm/min, with a 0.5 s response time, and 1 nm bandwidth. CD melting experiments were carried out in the 20–100 °C temperature range, with 1 °C/min heating rate, by following changes in the CD signal at the wavelengths of the maximum CD intensity (i.e. 263 nm for c-Kit1 and c-Myc, and 290 nm for Tel23). As for Hairpin, CD melting curves were recorded by following the changes in the CD signal at 252 nm (the wavelength of the minimum CD intensity). CD melting curves were normalised between 0 and 1. […] The ΔT1/2 values correspond to the difference in the T1/2 values of the nucleic acid structures in the presence and absence of the compounds. All experiments were performed in duplicate, and the reported values are the mean of the two measurements.

F-c-Kit1-T GQ = experiment: FRET melting competition experiments; assay type: binding; conditions: 2 molar equiv ligand; for ΔT1/2 F-c-Kit1-T + Hairpin (1:15): 15 molar equiv unlabelled Hairpin; for ΔT1/2 F-c-Kit1-T + Hairpin (1:50): 50 molar equiv unlabelled Hairpin; for ΔT1/2 F-c-Kit1-T: no competitor
Excerpt: FRET melting analysis was used to further estimate the GQ over duplex selectivity of the selected compounds[53]. The GQ-forming oligonucleotide c-Kit1 labelled with FAM and TAMRA (F-c-Kit1-T) was employed because, among the parallel GQs used in this study (c-Kit1 and c-Myc), it was the only one with a lower T1/2 than the hairpin DNA duplex competitor (Hairpin), thus allowing proper estimation of the GQ-stabilising properties of the ligands in the presence of a large excess of the unlabelled (non-fluorescent) competitor. […] The sulphonamide S-3,2 was also considered since the crystal structure of such MTDL in complex with Tel23 was successfully obtained. Results of these experiments (Figure S9, Supporting Information and Table 3) confirmed that these compounds are efficient GQ stabilisers.
Measurements were carried out on an FP-8300 spectrofluorometer equipped with a Peltier temperature controller system (PCT-818). The dual-labelled GQ-forming FAM-[d([…])]-TAMRA sequence (F-c-Kit1-T), supplied by biomers.net GmbH (Ulm, Germany), was used for the experiments without further purification. […] The experiments were carried out in sealed quartz cuvettes with a path length of 1 cm, by using 0.2 μM GQ-forming oligonucleotide without or with 0.4 μM of each compound, and the unlabelled competitor (Hairpin) at 0, 3, and 10 μM final concentrations. FRET melting experiments were performed in the range 15–90 °C, with 0.2 °C/min heating rate, by monitoring the emission of FAM at 520 nm (upon excitation at 492 nm). Both excitation and emission slits were set to 5 nm. The emission intensity of FAM was then normalised between 0 and 1. Fluorescence emission spectra were acquired before (at 15 °C) and after (at 90 °C) the melting assay, in the range 500–650 nm, with a 100 nm/s scan speed. Data analysis was performed using OriginPro 2021 software.

Tel23 = experiment: CD melting experiments, Tel23 GQ; assay type: binding, human; conditions: for ΔT1/2 Tel23: 2 molar equiv compound, T1/2 of DNA alone 53.5 °C; for ΔΔT1/2 Tel23: ΔT1/2 of compound minus ΔT1/2 of berberine, 2 molar equiv
[1] = sulphonamides, inhibitor-enzyme incubation 15 min
[2] = coumarins, inhibitor-enzyme incubation 6 h

Compound | Selectivity index (SI) I/IX (hCA IX) | Selectivity index (SI) II/IX (hCA IX) | Ki (hCA IX; [1]) | Selectivity index (SI) I/XII (hCA XII) | Selectivity index (SI) II/XII (hCA XII) | Ki (hCA XII; [1]) | ΔT1/2 Hairpin (Hairpin) | ΔT1/2 F-c-Kit1-T + Hairpin (1:15) (F-c-Kit1-T GQ) | ΔT1/2 F-c-Kit1-T + Hairpin (1:50) (F-c-Kit1-T GQ) | ΔT1/2 F-c-Kit1-T (F-c-Kit1-T GQ) | ΔT1/2 Tel23 (Tel23) | ΔΔT1/2 Tel23 (Tel23) | Ki (hCA IX; [2]) | Ki (hCA XII; [2])
COc1ccc2cc3[n+](cc2c1OCCn1cc(-c2ccc(S(N)(=O)=O)cc2)nn1)CCc1cc2c(cc1-3)OCO2 [Compound 26, 10-Methoxy-9–(2-(4–(4-sulfamoylphenyl)-1H-1,2,3-triazol-1-yl)ethoxy)-5,6-dihydro-[1,3]dioxolo[4,5-g]isoquinolino[3,2-a]isoquinolin-7-ium hexafluorophosphate] | 414.6 | 42.4 | 1.1 nM and 1.4 nM | 79.5 | 8.1 | 7.3 ± 0.5 nM | -0.5 °C | 10.2 °C | 12.4 °C | 12.4 °C | 10.0 °C | 0.5 °C | – | –
COc1ccc2cc3[n+](cc2c1OCCCn1cc(COc2ccc(S(N)(=O)=O)cc2)nn1)CCc1cc2c(cc1-3)OCO2 [Compound 29, 10-Methoxy-9–(3-(4-((4-sulfamoylphenoxy)methyl)-1H-1,2,3-triazol-1-yl)propoxy)-5,6-dihydro-[1,3]dioxolo[4,5-g]isoquinolino[3,2-a]isoquinolin-7-ium hexafluorophosphate] | 1437 | 111.3 | 0.56 ± 0.03 nM | 25.8 | 2.0 | 31.2 ± 2.5 nM | -0.5 °C | 12.8 °C | 13.2 °C | 13.2 °C | 8.0 °C | −1.5 °C | – | –
COc1ccc2cc3[n+](cc2c1OCCCCn1cc(-c2ccc(S(N)(=O)=O)cc2)nn1)CCc1cc2c(cc1-3)OCO2 [Compound 30, 10-Methoxy-9–(4–(4-(4-sulfamoylphenyl)-1H-1,2,3-triazol-1-yl)butoxy)-5,6-dihydro-[1,3]dioxolo[4,5-g]isoquinolino[3,2-a]isoquinolin-7-ium hexafluorophosphate] | 1209 | 112.4 | 0.49 ± 0.03 nM | 23.2 | 2.2 | 25.5 ± 1.4 nM | -1.0 °C | 13.8 °C | 12.6 °C | 13.6 °C | 9.0 °C | −0.5 °C | – | –
COc1ccc2cc3[n+](cc2c1OCCCCCn1cc(-c2ccc(S(N)(=O)=O)cc2)nn1)CCc1cc2c(cc1-3)OCO2 [Compound 32, 10-Methoxy-9-((5–(4-(4-sulfamoylphenyl)-1H-1,2,3-triazol-1-yl)pentyl)oxy)-5,6-dihydro-[1,3]dioxolo[4,5-g]isoquinolino[3,2-a]isoquinolin-7-ium hexafluorophosphate] | 2390 | 65.8 | 0.24 ± 0.02 nM | 31.3 | 0.9 | 18.3 ± 1 nM | -1.0 °C | 15.0 °C | 14.6 °C | 14.4 °C | 12.0 °C | 2.5 °C | – | –
COc1ccc2cc3[n+](cc2c1OCCCn1cc(COc2ccc4ccc(=O)oc4c2)nn1)CCc1cc2c(cc1-3)OCO2 [Compound 34, 10-Methoxy-9–(3-(4-(((2-oxo-2H-chromen-7-yl)oxy)methyl)-1H-1,2,3-triazol-1-yl)propoxy)-5,6-dihydro-[1,3]dioxolo[4,5-g]isoquinolino[3,2-a]isoquinolin-7-ium hexafluorophosphate] | – | – | – | > 332.2 | > 332.2 | – | +1.0 °C | 11.4 °C | 11.2 °C | 10.6 °C | 10.5 °C | 1.0 °C | 66 ± 4.3 nM | 30.1 ± 1.5 nM
COc1ccc2cc3[n+](cc2c1OCCCCn1cc(COc2ccc4ccc(=O)oc4c2)nn1)CCc1cc2c(cc1-3)OCO2 [Compound 37, 10-Methoxy-9–(4-(4-(((2-oxo-2H-chromen-7-yl)oxy)methyl)-1H-1,2,3-triazol-1-yl)butoxy)-5,6-dihydro-[1,3]dioxolo[4,5-g]isoquinolino[3,2-a]isoquinolin-7-ium hexafluorophosphate] | > 578.0 | > 578.0 | – | > 1190 | > 1190 | – | +0.5 °C | 12.8 °C | 12.6 °C | 12.0 °C | 9.0 °C | −0.5 °C | 17.3 ± 1.2 nM | 8.4 ± 0.5 nM
COc1ccc2cc3[n+](cc2c1OCCCCCn1cc(COc2ccc4ccc(=O)oc4c2)nn1)CCc1cc2c(cc1-3)OCO2 [Compound 39, 10-Methoxy-9-((5–(4-(((2-oxo-2H-chromen-7-yl)oxy)methyl)-1H-1,2,3-triazol-1-yl)pentyl)oxy)-5,6-dihydro-[1,3]dioxolo[4,5-g]isoquinolino[3,2-a]isoquinolin-7-ium hexafluorophosphate] | > 205.8 | > 205.8 | – | > 497.5 | > 497.5 | – | -1.0 °C | 13.2 °C | 14.0 °C | 14.6 °C | 8.5 °C | −1.0 °C | 48.6 ± 2.6 nM | 20.1 ± 1.3 nM

— paper PMC11195807, “Development of a multi-targeted chemotherapeutic approach based on G-quadruplex stabilisation and carbonic anhydrase inhibition” (Journal of Enzyme Inhibition and Medicinal Chemistry, 2024)
